# From article PMC5290997 (Bioconjugate chemistry, 2016)
# Legend:
# [1] = biological target: PSMA (Homo sapiens, UniProt Q04609); experiment: PSMA inhibition assay; format: biochemical; conditions: LNCaP cell lysates, 4 µM NAAG, Cheng-Prusoff conversion
# [2] = chelating agent for ^68Ga; cited from earlier work
# PSMA, sequence (Q04609 whole entry): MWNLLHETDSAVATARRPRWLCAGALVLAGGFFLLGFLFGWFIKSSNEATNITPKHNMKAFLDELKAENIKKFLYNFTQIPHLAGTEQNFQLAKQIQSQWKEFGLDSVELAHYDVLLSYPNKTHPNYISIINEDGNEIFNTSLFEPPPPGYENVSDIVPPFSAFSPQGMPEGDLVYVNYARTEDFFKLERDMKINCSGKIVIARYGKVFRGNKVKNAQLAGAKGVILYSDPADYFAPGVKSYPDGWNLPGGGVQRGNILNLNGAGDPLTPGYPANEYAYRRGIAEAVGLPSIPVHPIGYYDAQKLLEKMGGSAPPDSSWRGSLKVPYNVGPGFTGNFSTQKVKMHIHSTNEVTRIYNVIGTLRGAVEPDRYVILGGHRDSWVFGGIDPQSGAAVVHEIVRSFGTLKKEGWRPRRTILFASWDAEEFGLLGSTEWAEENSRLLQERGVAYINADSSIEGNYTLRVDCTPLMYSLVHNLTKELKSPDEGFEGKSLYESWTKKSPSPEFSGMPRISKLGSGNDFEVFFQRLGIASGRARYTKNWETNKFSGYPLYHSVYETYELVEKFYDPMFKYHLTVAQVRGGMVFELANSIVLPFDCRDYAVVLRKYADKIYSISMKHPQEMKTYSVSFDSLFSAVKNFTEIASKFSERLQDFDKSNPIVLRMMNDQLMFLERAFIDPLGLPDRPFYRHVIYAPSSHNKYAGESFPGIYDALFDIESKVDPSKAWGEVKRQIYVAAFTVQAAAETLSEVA
Structure (SMILES),Ki [1],"stability constant, KML [2]"
"O=C(O)CCc1ccc(O)c(CN(CCN(CC(=O)O)Cc2cc(CCC(=O)NCCCCCC(=O)NCCCC[C@H](NC(=O)N[C@@H](CCC(=O)O)C(=O)O)C(=O)O)ccc2O)CC(=O)O)c1 [DKFZ-PSMA-11, Glu-urea-Lys-(Ahx)-HBED-CC]",0.03 nM,–
O=C(O)CN1CCN(CC(=O)O)CCN(CC(=O)O)CCN(CC(=O)O)CC1 [DOTA],–,21.3
"O=C(O)CN1CCN(CC(=O)O)CCN(CC(=O)O)CC1 [NOTA, 1,4,7-triazacyclononane-1,4,7-triacetic acid]",–,31.1
